Assay results from publication PMC8330742, “New benzothieno[2,3-c]pyridines as non-steroidal CYP17 inhibitors: design, synthesis, anticancer screening, apoptosis induction, and in silico ADME profile studies” (Journal of Enzyme Inhibition and Medicinal Chemistry, 2021).

How the values were obtained:
[1] = test system: OVCAR-8; experiment: NCI-60 SRB screen; format: cell-based, human; settings: Homo sapiens; OVCAR-8; single dose 10^−5 M; read-out: Growth inhibition (%)
[2] = test system: SK-OV-3; experiment: NCI-60 SRB screen; format: cell-based, human; settings: Homo sapiens; SK-OV-3; single dose 10^−5 M; read-out: Growth inhibition (%)
[3] = test system: NCI-H23; experiment: NCI-60 SRB screen; format: cell-based, human; settings: Homo sapiens; NCI-H23; single dose 10^−5 M; read-out: Growth inhibition (%)
[4] = test system: MALME-3M; experiment: NCI-60 SRB screen; format: cell-based, human; settings: Homo sapiens, single dose 10^−5 M, read-out: Growth inhibition (%)
[5] = test system: EKVX; experiment: NCI-60 SRB screen; format: cell-based, human; settings: Homo sapiens, single dose 10^−5 M, read-out: Growth inhibition (%)
[6] = test system: panel of 60 cancer cell lines; experiment: NCI-60 SRB screen, mean or range over the panel; format: cell-based, human; settings: Homo sapiens; mean over the cell lines; single dose 10^−5 M; read-out: Mean growth inhibition (%)
[7] = test system: HCC-2998; experiment: NCI-60 SRB screen; format: cell-based, human; settings: Homo sapiens; HCC-2998; single dose 10^−5 M; read-out: Growth inhibition (%)
[8] = test system: SK-MEL-5; experiment: NCI-60 SRB screen; format: cell-based, human; settings: Homo sapiens; SK-MEL-5; single dose 10^−5 M; read-out: Growth inhibition (%)
[9] = test system: LOX IMVI; experiment: NCI-60 SRB screen; format: cell-based, human; settings: Homo sapiens, single dose 10^−5 M, read-out: Growth inhibition (%)
[10] = test system: MDA-MB-435; experiment: NCI-60 SRB screen; format: cell-based; settings: Homo sapiens, MDA-MB-435, read-out: Growth inhibition (%)
[11] = test system: IGROV1; experiment: NCI-60 SRB screen; format: cell-based, human; settings: Homo sapiens, IGROV-1; IGROV1; single dose 10^−5 M; read-out: Growth inhibition (%)
[12] = test system: OVCAR-3; experiment: NCI-60 SRB screen; format: cell-based, human; settings: Homo sapiens; OVCAR-3; single dose 10^−5 M; read-out: Growth inhibition (%)
[13] = test system: TK-10; experiment: NCI-60 SRB screen; format: cell-based, human; settings: Homo sapiens; TK-10; single dose 10^−5 M; read-out: Growth inhibition (%)
[14] = test system: NCI-H226; experiment: NCI-60 SRB screen; format: cell-based, human; settings: Homo sapiens; NCI-H226; single dose 10^−5 M; read-out: Growth inhibition (%)
[15] = test system: UO-31; experiment: NCI-60 SRB screen; format: cell-based, human; settings: Homo sapiens; UO-31; single dose 10^−5 M; read-out: Growth inhibition (%)
[16] = test system: NCI/ADR-RES; experiment: NCI-60 SRB screen; format: cell-based, human; settings: Homo sapiens, single dose 10^−5 M, read-out: Growth inhibition (%)
[17] = test system: HOP-62; experiment: NCI-60 SRB screen; format: cell-based, human; settings: Homo sapiens; HOP-62; single dose 10^−5 M; read-out: Growth inhibition (%)
[18] = test system: OVCAR-4; experiment: NCI-60 SRB screen; format: cell-based, human; settings: Homo sapiens; OVCAR-4; single dose 10^−5 M; read-out: Growth inhibition (%)
[19] = test system: M14; experiment: NCI-60 SRB screen; format: cell-based, human; settings: Homo sapiens; M14; single dose 10^−5 M; read-out: Growth inhibition (%)
[20] = test system: SR; experiment: NCI-60 SRB screen; format: cell-based; settings: Homo sapiens, single dose 10^−5 M, read-out: Growth inhibition (%)
[21] = test system: HCT-15; experiment: NCI-60 SRB screen; format: cell-based, human; settings: Homo sapiens; HCT-15; single dose 10^−5 M; read-out: Growth inhibition (%)
[22] = test system: KM12; experiment: NCI-60 SRB screen; format: cell-based, human; settings: Homo sapiens; KM12; single dose 10^−5 M; read-out: Growth inhibition (%)
[23] = test system: COLO 205; experiment: NCI-60 SRB screen; format: cell-based, human; settings: Homo sapiens; COLO 205; single dose 10^−5 M; read-out: Growth inhibition (%)
[24] = test system: SF-268; experiment: NCI-60 SRB screen; format: cell-based, human; settings: Homo sapiens; SF-268; single dose 10^−5 M; read-out: Growth inhibition (%)
[25] = test system: HCT-116; experiment: NCI-60 SRB screen; format: cell-based, human; settings: Homo sapiens; HCT-116; single dose 10^−5 M; read-out: Growth inhibition (%)
[26] = test system: SN12C; experiment: NCI-60 SRB screen; format: cell-based, human; settings: Homo sapiens, SN12C; SN 12 C; single dose 10^−5 M; read-out: Growth inhibition (%)
[27] = test system: SK-MEL-2; experiment: NCI-60 SRB screen; format: cell-based, human; settings: Homo sapiens; SK-MEL-2; single dose 10^−5 M; read-out: Growth inhibition (%)
[28] = test system: SK-MEL-28; experiment: NCI-60 SRB screen; format: cell-based; settings: Homo sapiens; SK-MEL-28; single dose 10^−5 M; read-out: Growth inhibition (%)
[29] = test system: NCI-H522; experiment: NCI-60 SRB screen; format: cell-based, human; settings: Homo sapiens; NCI-H522; single dose 10^−5 M; read-out: Growth inhibition (%)
[30] = test system: SF-295; experiment: NCI-60 SRB screen; format: cell-based, human; settings: Homo sapiens; SF-295; single dose 10^−5 M; read-out: Growth inhibition (%)
[31] = test system: CCRF-CEM; experiment: NCI-60 SRB screen; format: cell-based; settings: Homo sapiens, single dose 10^−5 M, read-out: Growth inhibition (%)
[32] = test system: NCI-H322M; experiment: NCI-60 SRB screen; format: cell-based, human; settings: Homo sapiens, single dose 10^−5 M, read-out: Growth inhibition (%)
[33] = test system: MOLT-4; experiment: NCI-60 SRB screen; format: cell-based; settings: Homo sapiens; MOLT-4; single dose 10^−5 M; read-out: Growth inhibition (%)
[34] = test system: NCI-H460; experiment: NCI-60 SRB screen; format: cell-based, human; settings: Homo sapiens; NCI-H460; single dose 10^−5 M; read-out: Growth inhibition (%)
[35] = test system: K-562; experiment: NCI-60 SRB screen; format: cell-based, human; settings: Homo sapiens, K562; K-562; single dose 10^−5 M; read-out: Growth inhibition (%)
[36] = test system: RXF 393; experiment: NCI-60 SRB screen; format: cell-based, human; settings: Homo sapiens; RXF 393; single dose 10^−5 M; read-out: Growth inhibition (%)
[37] = test system: A549/ATCC; experiment: NCI-60 SRB screen; format: cell-based, human; settings: Homo sapiens, single dose 10^−5 M, read-out: Growth inhibition (%)
[38] = test system: UACC-62; experiment: NCI-60 SRB screen; format: cell-based, human; settings: Homo sapiens; UACC-62; single dose 10^−5 M; read-out: Growth inhibition (%)
[39] = test system: HOP-92; experiment: NCI-60 SRB screen; format: cell-based, human; settings: Homo sapiens; HOP-92; single dose 10^−5 M; read-out: Growth inhibition (%)
[40] = test system: HL-60(TB); experiment: NCI-60 SRB screen; format: cell-based, human; settings: Homo sapiens; HL-60 (TB); single dose 10^−5 M; read-out: Growth inhibition (%)
[41] = test system: HT-29; experiment: NCI-60 SRB screen; format: cell-based; settings: Homo sapiens; HT-29; single dose 10^−5 M; read-out: Growth inhibition (%)
[42] = test system: ACHN; experiment: NCI-60 SRB screen; format: cell-based; settings: Homo sapiens, single dose 10^−5 M, read-out: Growth inhibition (%)
[43] = test system: CAKI-1; experiment: NCI-60 SRB screen; format: cell-based, human; settings: Homo sapiens; CAKI-1; single dose 10^−5 M; read-out: Growth inhibition (%)
[44] = test system: SW-620; experiment: NCI-60 SRB screen; format: cell-based; settings: Homo sapiens; SW-620; single dose 10^−5 M; read-out: Growth inhibition (%)

Structure (SMILES): O=C1NC(c2cccc([N+](=O)[O-])c2)c2sc3c(F)cccc3c2C1N1CCCCC1 (stereo not shown) [Compound 6c, 8-Fluoro-1-(3-nitrophenyl)-4-(piperidin-1-yl)-1,2-dihydro[1]benzothieno [2,3-c]pyridin-3(4H)-one]
- inhibition at 10 µM [1]: 5%
- inhibition at 10 µM [2]: -0.84%
- inhibition at 10 µM [3]: 5.16%
- inhibition at 10 µM [4]: -1.85%
- inhibition at 10 µM [5]: 5.86%
- inhibition at 10 µM [6]: 2.54%
- inhibition at 10 µM [7]: 2.82%
- inhibition at 10 µM [8]: 1.15%
- inhibition at 10 µM [9]: 2.5%
- inhibition at 10 µM [10]: -8.63%
- inhibition at 10 µM [11]: 20.7%
- inhibition at 10 µM [12]: -2.74%
- inhibition at 10 µM [13]: -42.2%
- inhibition at 10 µM [14]: 8.71%
- inhibition at 10 µM [15]: 32.2%
- inhibition at 10 µM [16]: -1.66%
- inhibition at 10 µM [17]: 11.5%
- inhibition at 10 µM [18]: -4.39%
- inhibition at 10 µM [19]: 1.9%
- inhibition at 10 µM [20]: 0.3%
- inhibition at 10 µM [21]: 3.74%
- inhibition at 10 µM [22]: 2.91%
- inhibition at 10 µM [23]: -12.7%
- inhibition at 10 µM [24]: 2.64%
- inhibition at 10 µM [25]: 20.6%
- inhibition at 10 µM [26]: 2.45%
- inhibition at 10 µM [27]: -8.06%
- inhibition at 10 µM [28]: -12.4%
- inhibition at 10 µM [29]: 14%
- inhibition at 10 µM [30]: 2.28%
- inhibition at 10 µM [31]: 1.84%
- inhibition at 10 µM [32]: 2.6%
- inhibition at 10 µM [33]: 8.91%
- inhibition at 10 µM [34]: -0.58%
- inhibition at 10 µM [35]: 6.11%
- inhibition at 10 µM [36]: 6.16%
- inhibition at 10 µM [37]: -0.32%
- inhibition at 10 µM [38]: 4.85%
- inhibition at 10 µM [39]: 14.1%
- inhibition at 10 µM [40]: -17%
- inhibition at 10 µM [41]: 9%
- inhibition at 10 µM [42]: 9.32%
- inhibition at 10 µM [43]: 17.6%
- inhibition at 10 µM [44]: 7.46%

Structure (SMILES): O=[N+]([O-])c1cccc(C2NC(Cl)=C(Cl)c3c2sc2c(F)cccc32)c1 (stereo not shown) [Compound 7a, 3,4-Dichloro-8-fluoro-1-(3-nitrophenyl)-1,2-dihydro[1]benzothieno[2,3-c] pyridine]
- inhibition at 10 µM [1]: 1.9%
- inhibition at 10 µM [2]: 5.95%
- inhibition at 10 µM [3]: 8.55%
- inhibition at 10 µM [4]: -2.96%
- inhibition at 10 µM [5]: 7.1%
- inhibition at 10 µM [6]: 3.15%
- inhibition at 10 µM [7]: -16.1%
- inhibition at 10 µM [8]: 1.94%
- inhibition at 10 µM [9]: 1.24%
- inhibition at 10 µM [10]: -9.15%
- inhibition at 10 µM [11]: 10.7%
- inhibition at 10 µM [12]: -3.96%
- inhibition at 10 µM [13]: -37.2%
- inhibition at 10 µM [14]: 14.2%
- inhibition at 10 µM [15]: 30.2%
- inhibition at 10 µM [16]: -2.76%
- inhibition at 10 µM [17]: 15.5%
- inhibition at 10 µM [18]: 3.16%
- inhibition at 10 µM [19]: 4.95%
- inhibition at 10 µM [20]: 16.2%
- inhibition at 10 µM [21]: -1.63%
- inhibition at 10 µM [22]: 3.25%
- inhibition at 10 µM [23]: -14.6%
- inhibition at 10 µM [24]: 5.16%
- inhibition at 10 µM [25]: 13.4%
- inhibition at 10 µM [26]: 2.54%
- inhibition at 10 µM [27]: -5.95%
- inhibition at 10 µM [28]: -11.4%
- inhibition at 10 µM [29]: 12.7%
- inhibition at 10 µM [30]: -2.06%
- inhibition at 10 µM [31]: 2.12%
- inhibition at 10 µM [32]: -2.48%
- inhibition at 10 µM [33]: 15.2%
- inhibition at 10 µM [34]: 1.24%
- inhibition at 10 µM [35]: 18%
- inhibition at 10 µM [36]: 7.81%
- inhibition at 10 µM [37]: 2.3%
- inhibition at 10 µM [38]: 7.18%
- inhibition at 10 µM [39]: 14.7%
- inhibition at 10 µM [40]: -8.33%
- inhibition at 10 µM [41]: -1.97%
- inhibition at 10 µM [42]: 6.96%
- inhibition at 10 µM [43]: 18.8%
- inhibition at 10 µM [44]: 4.18%
